Data as given in PubChem BioAssay AID1963845 (Molecular Pharmacology Branch, DTP, NCI, 2024).

Tested on: 429239-143-T-J1-PDC complex spheroid viability
Assay: Anticancer human tumor 429239-143-T-J1-PDC patient-derived small cell lung carcinoma cell line growth inhibition [POLQ]
Details: for IC50: curve of first compound; for viability, T/C: stronger effect = lower value
Method in brief: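 Three-cell-type spheroids modelling solid tumor plus stroma served as the readout system; POL inhibitors were tested individually and in combination, concentration ranges set by clinical Cmax where known.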

[1] = second compound 0.0316 µM, first compound 0.0316 µM
[2] = second compound 0.0316 µM, first compound 0.1 µM
[3] = second compound 0.0316 µM, first compound 0.316 µM
[4] = second compound 0.0316 µM, first compound 1 µM
[5] = second compound 0.0316 µM, first compound 3.16 µM
[6] = second compound 0.0316 µM, first compound 10 µM
[7] = second compound 0.1 µM, first compound 0.0316 µM
[8] = second compound 0.1 µM, first compound 0.1 µM
[9] = second compound 0.1 µM, first compound 0.316 µM
[10] = second compound 0.1 µM, first compound 1 µM
[11] = second compound 0.1 µM, first compound 3.16 µM
[12] = second compound 0.1 µM, first compound 10 µM
[13] = second compound 0.316 µM, first compound 0.0316 µM
[14] = second compound 0.316 µM, first compound 0.1 µM
[15] = second compound 0.316 µM, first compound 0.316 µM
[16] = second compound 0.316 µM, first compound 1 µM
[17] = second compound 0.316 µM, first compound 3.16 µM
[18] = second compound 0.316 µM, first compound 10 µM
[19] = second compound 1 µM, first compound 0.0316 µM
[20] = second compound 1 µM, first compound 0.1 µM
[21] = second compound 1 µM, first compound 0.316 µM
[22] = second compound 1 µM, first compound 1 µM
[23] = second compound 1 µM, first compound 3.16 µM
[24] = second compound 1 µM, first compound 10 µM
[25] = second compound 3.16 µM, first compound 0.0316 µM
[26] = second compound 3.16 µM, first compound 0.1 µM
[27] = second compound 3.16 µM, first compound 0.316 µM
[28] = second compound 3.16 µM, first compound 1 µM
[29] = second compound 3.16 µM, first compound 3.16 µM
[30] = second compound 3.16 µM, first compound 10 µM
[31] = second compound 10 µM, first compound 0.0316 µM
[32] = second compound 10 µM, first compound 0.1 µM
[33] = second compound 10 µM, first compound 0.316 µM
[34] = second compound 10 µM, first compound 1 µM
[35] = second compound 10 µM, first compound 3.16 µM
[36] = second compound 10 µM, first compound 10 µM
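Also: luminescence signal used as surrogate measure of viable cells; spheroids exposed to compounds for seven days before readout.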
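For viability, T/C in this document: 100% = DMSO vehicle control viability as luminescence relative to vehicle.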

CCc1cc2c(N3CCc4c(cc(Cn5ccnc5)cc4-c4cn(C)nc4C(F)(F)F)C3=O)ccnc2c(OC)n1 + Nc1ccc(C#CCN(C(=O)Cc2ncc(C(F)(F)F)cc2C(F)(F)F)c2ccc(F)cc2)nn1
IC50 (second compound 0.0316 µM): 9.75 µM | IC50 (second compound 0.1 µM): > 10 µM | IC50 (second compound 0.316 µM): 7.86 µM | IC50 (second compound 1 µM): 9.55 µM | IC50 (second compound 3.16 µM): > 10 µM | IC50 (second compound 10 µM): > 10 µM | viability, T/C [1]: 100% | viability, T/C [2]: 94.9% | viability, T/C [3]: 85.2% | viability, T/C [4]: 80.7% | viability, T/C [5]: 86.4% | viability, T/C [6]: 48% | viability, T/C [7]: 93.7% | viability, T/C [8]: 96.8% | viability, T/C [9]: 92.5% | viability, T/C [10]: 74.1% | viability, T/C [11]: 68.5% | viability, T/C [12]: 49.2% | viability, T/C [13]: 112% | viability, T/C [14]: 113% | viability, T/C [15]: 97.8% | viability, T/C [16]: 83.8% | viability, T/C [17]: 69.9% | viability, T/C [18]: 44.7% | viability, T/C [19]: 108% | viability, T/C [20]: 94.4% | viability, T/C [21]: 94.4% | viability, T/C [22]: 84.6% | viability, T/C [23]: 74.3% | viability, T/C [24]: 47.6% | viability, T/C [25]: 108% | viability, T/C [26]: 96% | viability, T/C [27]: 93.1% | viability, T/C [28]: 93.6% | viability, T/C [29]: 70.9% | viability, T/C [30]: 54% | viability, T/C [31]: 103% | viability, T/C [32]: 93% | viability, T/C [33]: 88.5% | viability, T/C [34]: 79.1% | viability, T/C [35]: 71% | viability, T/C [36]: 48.2%

COc1cc2cc(C(=O)CCC(=O)O)sc2cc1OC + Nc1ccc(C#CCN(C(=O)Cc2ncc(C(F)(F)F)cc2C(F)(F)F)c2ccc(F)cc2)nn1
IC50 (second compound 0.0316 µM): > 10 µM | IC50 (second compound 0.1 µM): > 10 µM | IC50 (second compound 0.316 µM): > 10 µM | IC50 (second compound 1 µM): > 10 µM | IC50 (second compound 3.16 µM): > 10 µM | IC50 (second compound 10 µM): > 10 µM | viability, T/C [1]: 90.4% | viability, T/C [2]: 108% | viability, T/C [3]: 89.8% | viability, T/C [4]: 107% | viability, T/C [5]: 106% | viability, T/C [6]: 119% | viability, T/C [7]: 106% | viability, T/C [8]: 113% | viability, T/C [9]: 101% | viability, T/C [10]: 106% | viability, T/C [11]: 103% | viability, T/C [12]: 97.4% | viability, T/C [13]: 105% | viability, T/C [14]: 109% | viability, T/C [15]: 96.8% | viability, T/C [16]: 117% | viability, T/C [17]: 95.4% | viability, T/C [18]: 101% | viability, T/C [19]: 105% | viability, T/C [20]: 106% | viability, T/C [21]: 94.8% | viability, T/C [22]: 97.9% | viability, T/C [23]: 100% | viability, T/C [24]: 105% | viability, T/C [25]: 97% | viability, T/C [26]: 107% | viability, T/C [27]: 103% | viability, T/C [28]: 104% | viability, T/C [29]: 94.9% | viability, T/C [30]: 99.8% | viability, T/C [31]: 96.9% | viability, T/C [32]: 105% | viability, T/C [33]: 108% | viability, T/C [34]: 98.2% | viability, T/C [35]: 99.9% | viability, T/C [36]: 98.3%

Cn1ncnc1[C@H]1c2n[nH]c(=O)c3cc(F)cc(c23)N[C@@H]1c1ccc(F)cc1 + Nc1ccc(C#CCN(C(=O)Cc2ncc(C(F)(F)F)cc2C(F)(F)F)c2ccc(F)cc2)nn1
IC50 (second compound 0.0316 µM): > 0.1 µM | IC50 (second compound 0.1 µM): > 0.1 µM | IC50 (second compound 0.316 µM): > 0.1 µM | IC50 (second compound 1 µM): > 0.1 µM | IC50 (second compound 3.16 µM): > 0.1 µM | IC50 (second compound 10 µM): > 0.1 µM | viability, T/C (second compound 0.0316 µM, first compound 0.000316 µM): 101% | viability, T/C (second compound 0.0316 µM, first compound 0.001 µM): 104% | viability, T/C (second compound 0.0316 µM, first compound 0.00316 µM): 89.8% | viability, T/C (second compound 0.0316 µM, first compound 0.01 µM): 83.4% | viability, T/C [1]: 83.1% | viability, T/C [2]: 60.8% | viability, T/C (second compound 0.1 µM, first compound 0.000316 µM): 101% | viability, T/C (second compound 0.1 µM, first compound 0.001 µM): 104% | viability, T/C (second compound 0.1 µM, first compound 0.00316 µM): 95.3% | viability, T/C (second compound 0.1 µM, first compound 0.01 µM): 83.1% | viability, T/C [7]: 84.7% | viability, T/C [8]: 60.4% | viability, T/C (second compound 0.316 µM, first compound 0.000316 µM): 104% | viability, T/C (second compound 0.316 µM, first compound 0.001 µM): 101% | viability, T/C (second compound 0.316 µM, first compound 0.00316 µM): 93.7% | viability, T/C (second compound 0.316 µM, first compound 0.01 µM): 83.8% | viability, T/C [13]: 79.8% | viability, T/C [14]: 67.1% | viability, T/C (second compound 1 µM, first compound 0.000316 µM): 111% | viability, T/C (second compound 1 µM, first compound 0.001 µM): 112% | viability, T/C (second compound 1 µM, first compound 0.00316 µM): 95.1% | viability, T/C (second compound 1 µM, first compound 0.01 µM): 87.8% | viability, T/C [19]: 81.7% | viability, T/C [20]: 58% | viability, T/C (second compound 3.16 µM, first compound 0.000316 µM): 106% | viability, T/C (second compound 3.16 µM, first compound 0.001 µM): 91.4% | viability, T/C (second compound 3.16 µM, first compound 0.00316 µM): 94.2% | viability, T/C (second compound 3.16 µM, first compound 0.01 µM): 95.2% | viability, T/C [25]: 75.8% | viability, T/C [26]: 69.8% | viability, T/C (second compound 10 µM, first compound 0.000316 µM): 108% | viability, T/C (second compound 10 µM, first compound 0.001 µM): 91.7% | viability, T/C (second compound 10 µM, first compound 0.00316 µM): 101% | viability, T/C (second compound 10 µM, first compound 0.01 µM): 87.9% | viability, T/C [31]: 74.2% | viability, T/C [32]: 60.2%
